Measurements reported in patent publication US6664231B1, “Anti-fungal peptides” (priority 1993, dated 2003).
In brackets after ≈: the same amount, converted by molar mass. Square brackets hold non-standard residues; d marks the D form. Peptide text beside a SMILES is read from it. 1Nal = N[C@@H](Cc1cccc2ccccc12)C(=O)O

How the values were obtained:
[1] = test system: C. albicans designated CA-1, Strain SLU-1; conditions: designated CA-1, Strain SLU-1, 18 h
Procedure: In each broth assay screening procedure, a colony of C. albicans designated CA-1, Strain SLU-1 that was received from the laboratories of G. Matuschak and A. Lechner, St. Louis University Hospital, St. Louis, Mo., where the strain was maintained, was inoculated into a tube containing 5 mL Sabouraud Dextrose broth (2% dextrose, 1% neopeptone) and incubated overnight at 37° C. with shaking. The overnight culture was diluted 1:50 into 5 mL of fresh broth and incubated for 3 hours at 37° C. Organisms were pelleted by centrifugation in a Beckman J-6M centrifuge for 5 minutes at 3000 rpm (1500×g) and the pellets were resuspended in 5 mL phosphate buffered saline (PBS) and the optical density at 570 nm was determined. On the basis of the determination that one OD unit equals 3×10^7 colony forming units/mL, yeast cells were diluted to 2×10^6 cells/mL in Sabouraud Dextrose broth.
Domain III peptides derived from or based on BPI to be screened were originally constituted in Dulbecco's-PBS, were diluted to 100 μg/mL in broth and were serially diluted 2-fold into wells of a 96 well sterile, flat bottom, non-pyrogenic tissue culture plate (Costar, Cambridge, Mass.). All assays were performed in triplicate. 2×10^5 organisms were added at 100 μl per well; final volume was 200 μL/well; the plate was incubated on a shaker at 37° C. for 18 hours; and the optical densities for each well were read at 590 nm. […] The broth assay data may be set out in terms of minimum inhibitory concentration (MIC), i.e. the lowest concentration required to reduce the optical density at 590 nm to below 0.1.

[2] = test system: C. albicans (CA-1, Strain SLU-1); assay: Radial diffusion assay; format: cell-based, Candida albicans; conditions: pmoles of peptide added to well to achieve a 30 mm^2 zone, PROBIT analysis; crude or purified (P′) peptide
In short: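 Yeast at 1×10^6 CFU/mL in agarose underlayer (3% Sabouraud, 10 mM sodium phosphate pH 7.4); 2-fold peptide dilutions in D-PBS from ~1 mg/mL loaded into wells, 3 h at 37° C, then nutrient overlayer overnight. Value: pmol/well giving 30 mm^2 net clear zone, by PROBIT regression.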

in vitro = in vitro ADME, rat or human serum; conditions: half-life of peptide in serum as detected by HPLC analysis
Procedure: (§1) For these serum stability experiments, peptides were prepared by solid phase peptide sythesis and purified to 94% or greater purity as described in Example 1. Blood was collected from metaphane anesthesized rats by aortic bleed into Vacutainer™ tubes and allowed to clot at room temperature for approximately 30 minutes, then centrifuged at 3000 rpm (about 1000×g) for 10 minutes at room temperature and the serum aspirated. In addition, frozen human serum (North American Biologics, Inc., Miami, Fla., cat. no. 2140, lot no. 94115) was thawed at room temperature and filtered through a 0.45 μm membrane before use.
(§2) A 1 mg/mL solution of an exemplary XMP peptide to be tested was added to an equal volume of either rat or human serum described above and maintained at 37° C. At 0, 1, 2, and 4 hours, 100 μL were removed and processed by solid phase extraction for HPLC analysis as follows. Serum samples were prepared for HPLC using C-18 Sep-Pak cartridges (1 mL cartridge with 100 mg of sorbent, Waters Corp., Milford, Mass.). One hundred μL of serum sample were added to an equal volume of 1% TFA and mixed for 30 seconds on a Vortex mixer. The sample was then applied to a C-18 Sep-Pak cartridge that had been conditioned by washing with 1 mL of methanol followed by 1 mL Milli-Q water. Weakly reed components were eluted by washing with 1 mL of 0. 1% TFA. The bound peptide was eluted with two volumes of 250 μL 80% acetonitrile/0.065% TFA.
The material eluted from the Sep-Pak cartridge was analyzed on a Michrom Ultaafast Microprotein Analyzer equipped with a 150 mm×1 mm, 5μ particle, 300 Å pore C-8 Zorbax column. The column oven was set to 40° C., the flow rate was 100 μL/minute, and injection volumes were typically 5-10 μL. HPLC was performed using 5% acetonitrile/0.1% TFA in water as mobile phase A, and 80% acetonitrile/0.065% TFA as mobile phase B. The eluate was monitored spectiophotometrically at 214 nm. Peptide standards were dissolved in mobile phase A at 0. 1 mg/mL. The gradient was 25-35% B/10 minutes followed by a 5 minute wash step of 100% B and reequilibration at 25% B for 10 minutes.

[3] = test system: Candida albicans SLU-1 strain; assay: Serum stability, anti-fungal activity after serum incubation by radial diffusion bioassay; format: in vitro ADME, rat or human serum
Procedure: as §1, §2
(§3) The peptides identified and purified after serum incubation as described above were subjected to N-terminal peptide sequencing performed on an Applied Biosystems Model 477A/120A sequencer and to electrospray ionization mass spectrometry (ESI/MS) performed using a VG Biotech Bio-Q Mass Spectrometer. In addition, the peptides identified and purified after serum incubation as described above were also tested for their anti-fungal activity in a radial diffusion bioassay with Candida albicans SLU-1 strain as described in Example 2.

Candida albicans SLU-1 = assay: Radial diffusion assay (Example 3), wild type strain; format: cell-based; conditions: FIG. 2A
Procedure: (§4) For the radial diffusion assays, Candida albicans SLU-1 were grown as described above and SLU-2G were grown overnight in Sabouraud dextrose broth supplemented with 10 μg/mL amphotericin B and 5 μg/mL ceftriaxone at 37° C. Cultures were diluted 1:25 into fresh, unsupplemented broth and allowed to grow for 5 hours at 37° C. Cells were pelleted at 1,500×g for 5 minutes at 4° C. Supernatant was decanted and replaced with 5 mL of 10 mM phosphate buffer, pH 7.4. After centrifugation the cell pellets were resuspended with 5 mL phosphate buffer for an OD570 determination. One OD570 for SLU-1 cells was 3×10^7 CFU/mL and for SLU-2G cells was 5×10^6 CFU/mL.
(§5) Cells were added to 10 mL of molten, cooled (˜45° C.) underlayer agarose to a concentration of 1×10^6/mL and the suspension was poured into a level square petri plate with gentle rocking to allow even distribution and solidification to a uniform thickness of about 1 mm. Wells were cut into the hardened agarose with a sterilize, 3 mm diameter punch with vacuum.
Peptides were two-fold serially diluted with DPBS from a starting concentration of approximately 1 mg/mL. Amphotericin B and nystatin were similarly diluted starting at 100 and 225 μg/mL, respectively. Five μL were added per well and allowed to diffuse at 37° C. for 1.5-2.0 hours. Then 10 mL of molten overlayer agarose were added and the plates were incubated inverted at 37° C. overnight. Plates were stained with a dilute Coomassie solution, inhibition zones were measured with calipers and net areas were calculated, then converted to pmol values by PROBIT analysis. The results of a representative experiment are shown in FIG. 2A for the SLU-1 strain and FIG. 2B for the SLU-2G strain. In FIGS. 2A and 2B, the fungicidal activity is represented for XMP.13 as open circles; for XMP.37 as closed circles; for XMP.97 as open triangles; for XMP.127 as closed triangles; for amphotericin B as open squares; and for nystatin as closed squares. The pmol for a 30 mm^2 zone of inhibition were calculated to be: for XMP.13, 689 pmol against SLU-1 and 129 pmol against SLU-2G; for XMP.37, 231 pmol against SLU-1 and 75 pmol against SLU-2G; for XMP.97, 670 pmol against SLU-1 and 161 pmol against SLU-2G; for XMP.127, 935 pmol against SLU-1 and 116 pmol against SLU-2G; for amphotericin B, 36 pmol against SLU-1 and >541 pmol for SLU-2G; and for nysttin, 98 pmol against SLU-1 and >1,215 pmol against SLU-2G.

[4] = test system: Candida albicans SLU-2G amphotericin B-resistant strain; assay: Radial diffusion assay (Example 3), amphotericin B-resistant strain; format: cell-based; conditions: FIG. 2B
Procedure: Domain III derived peptides were tested for their fungicidal activity on amphotericin resistant Candida. Resistant colonies of Candida were isolated using a gradient plate technique. A slanted Sabouraud dextrose agar plate was poured and allowed to harden. The plate was made level and additional agar supplemented with nystatin (Sigma, St. Louis, Mo., cat. no. N-3503) at a concentration of 10 μg/mL was poured. Cells from the CA-1 colony of Candida albicans SLU-1 strain described in Example 2 (10^7 cells in a volume of 100 μL) were spread over the plate and incubated at […] overnight.
as §4, with “determination.” for “determination. One OD570 for SLU-1 cells was 3×10^7 CFU/mL and for SLU-2G cells was 5×10^6 CFU/mL.”
as §5
Peptides were two-fold serially diluted with DPBS from a starting concentration of approximately 1 mg/mL. […] Five μL were added per well and allowed to diffuse at 37° C. for 1.5-2.0 hours. Then 10 mL of molten overlayer agarose were added and the plates were incubated inverted at 37° C. overnight. Plates were stained with a dilute Coomassie solution, inhibition zones were measured with calipers and net areas were calculated, then converted to pmol values by PROBIT analysis.

[5] = Serum stability, anti-fungal activity after serum incubation by radial diffusion bioassay; format: in vitro ADME, rat or human serum; conditions: Activity in Serum t ½ (hr.)
Procedure: as §1, §2, §3

Row | Compound | minimum inhibitory concentration (MIC), lowest concentration required to reduce the optical density at 590 nm to below 0.1 [1] | C. albicans pmol/30 mm^2 zone [2] | also measured
1 | CC[C@H](C)[C@H](NC(=O)[C@H](CC(C)C)NC(=O)[C@H](Cc1c[nH]c2ccccc12)NC(=O)CNC(=O)[C@@H](NC(=O)[C@H](CCCCN)NC(=O)[C@H](CO)NC(=O)[C@@H](N)CCCCN)C(C)C)C(=O)N[C@@H](CCC(N)=O)C(=O)N[C@@H](Cc1cccc2ccccc12)C(=O)N[C@@H](Cc1ccccc1)C(=O)N[C@@H](Cc1c[nH]cn1)C(=O)N[C@@H](CCCCN)C(=O)N[C@@H](CCCCN)C(N)=O [XMP.143] (H-KSKVGWLIQ[1Nal]FHKK-NH2) | 25.0 µg/mL (≈ 13.9 µM) | >2839 pmol/30 mm^2 zone | –
2 | CC[C@@H](C)[C@@H](NC(=O)[C@@H](CCC(N)=O)NC(=O)[C@@H](CC(C)C)NC(=O)[C@@H](CCCCN)NC(=O)[C@H](N)CCCCN)C(=O)N[C@H](C)C(=O)N[C@H](Cc1c[nH]c2ccccc12)C(=O)N[C@H](CCCCN)C(=O)N[C@H](CCCCN)C(N)=O [XMP.376] (H-[dK][dK][dL][dQ][dI][dA][dW][dK][dK]-NH2) | – | 138 pmol/30 mm^2 zone | HPLC Peptide in Serum t ½ (hr.) (in vitro): indefinite; Activity in Serum t ½ (hr.) [3]: indefinite
3 | C[C@@H]1[C@H](O)[C@@H](C)/C=C/C=C/CC/C=C/C=C/C=C/C=C/C(O[C@H]2O[C@H](C)[C@@H](O)[C@H](N)[C@@H]2O)CC2O[C@](O)(CC(O)C(O)CCC(O)CC(O)CC(O)CC(=O)O[C@H]1C)CC(O)C2C(=O)O (some centres unmarked) [nystatin, reference compound] | – | – | pmol for a 30 mm^2 zone of inhibition against SLU-1 (Candida albicans SLU-1): 98 pmol; pmol for a 30 mm^2 zone of inhibition against SLU-2G [4]: > 1,215 pmol
4 | H-KSKVGWLIQWFHKK-NH2 [XMP.142] | 12.5 µg/mL | 1244 pmol/30 mm^2 zone | –
5 | H-KSKVGYLIQLFHKK-NH2 [XMP.139] | 6.25 µg/mL | 323 pmol/30 mm^2 zone | half-life at 0.5 mg/mL [5]: 10.6 h
6 | H-KSKVKFLIQLFHKK-NH2 [XMP.138] | 3.13 µg/mL | 257 pmol/30 mm^2 zone | –
